From patent US20050197350A1, “Novel quinoline, tetrahydroquinazoline, and pyrimidine derivatives and methods of treatment related to the use thereof” (TAISHO PHARMACEUTICAL CO., LTD., priority 2003, published 2005)

What follows are molecules tested on MCH receptors (assay: MCH receptor activity class (method not given)). Details: class by percent of control at 10^−7 M or IC50.
With `Cc1cc(N(C)C)nc(N[C@H]2CC[C@@H](NC(=O)c3ccc(F)cc3)CC2)n1` [compound 2990, N-(cis-4-{[4-(dimethylamino)-6-methylpyrimidin-2-yl]amino}cyclohexyl)-4-fluorobenzamide] the class was 1 (Class 1: The value of percent of control at 10^−7 M was less than 40% or the value of IC50 was less than 50 nM.). With `COc1cc(C(=O)N[C@H]2CC[C@@H](Nc3nc(C)cc(N(C)C)n3)CC2)cc(OC)c1OC` [compound 2991, N-(cis-4-{[4-(dimethylamino)-6-methylpyrimidin-2-yl]amino}cyclohexyl)-3,4,5-trimethoxybenzamide] the class was 1 (Class 1: The value of percent of control at 10^−7 M was less than 40% or the value of IC50 was less than 50 nM.). In the case of `Cc1cc(N(C)C)nc(NC2CCC(NC(=O)c3cccc([N+](=O)[O-])c3)CC2)n1` (centres unmarked) [compound 2992, N-(4-{[4-(dimethylamino)-6-methylpyrimidin-2-yl]amino}cyclohexyl)-3-nitrobenzamide], the class is reported as 1 (Class 1: The value of percent of control at 10^−7 M was less than 40% or the value of IC50 was less than 50 nM.). In the case of `Cc1cc(N(C)C)nc(N[C@H]2CC[C@@H](NC(=O)C(c3ccccc3)c3ccccc3)CC2)n1` [compound 2993, N-(cis-4-{[4-(dimethylamino)-6-methylpyrimidin-2-yl]amino}cyclohexyl)-2,2-diphenylacetamide], the class is reported as 1 (Class 1: The value of percent of control at 10^−7 M was less than 40% or the value of IC50 was less than 50 nM.). For `Cc1cc(N(C)C)nc(N[C@H]2CC[C@@H](NC(=O)c3ccc(Cl)c(Cl)c3)CC2)n1` [compound 2994, 3,4-dichloro-N-(cis-4-{[4-(dimethylamino)-6-methylpyrimidin-2-yl]amino}cyclohexyl)benzamide], the class was 1 (Class 1: The value of percent of control at 10^−7 M was less than 40% or the value of IC50 was less than 50 nM.). For `Cc1cnc(N[C@H]2CC[C@@H](NS(=O)(=O)c3ccccc3)CC2)nc1N(C)C` [compound 2995, N-(cis-4-{[4-(dimethylamino)-5-methylpyrimidin-2-yl]amino}cyclohexyl)benzenesulfonamide], the class was 3 (Class 3 The value of percent of control at 10^−7 M was more than 60% or the value of IC50 was more than 200 nM.). With `Cc1ccc(CN[C@H]2CC[C@@H](Nc3ncc(C)c(N(C)C)n3)CC2)cc1` [compound 2996] the class was 3 (Class 3 The value of percent of control at 10^−7 M was more than 60% or the value of IC50 was more than 200 nM.). With `Cc1cnc(N[C@H]2CC[C@@H](NCc3ccc(F)c(F)c3)CC2)nc1N(C)C` [compound 2997] the class was 3 (Class 3 The value of percent of control at 10^−7 M was more than 60% or the value of IC50 was more than 200 nM.). `Cc1cnc(N[C@H]2CC[C@@H](NCc3cccc(Cl)c3)CC2)nc1N(C)C` [compound 2998] was tested, and the class was 3 (Class 3 The value of percent of control at 10^−7 M was more than 60% or the value of IC50 was more than 200 nM.). With `Cc1cnc(N[C@H]2CC[C@@H](NCc3cccc(Br)c3)CC2)nc1N(C)C` [compound 2999] the class was 3 (Class 3 The value of percent of control at 10^−7 M was more than 60% or the value of IC50 was more than 200 nM.). With `COc1cc(CN[C@H]2CC[C@@H](Nc3ncc(C)c(N(C)C)n3)CC2)cc(OC)c1` [compound 3000] the class was 2 (Class 2: The value of percent of control at 10^−7 M was from 40% to 60% or the value of IC′50 was from 50 nM to 200 nM.). With `Cc1cnc(N[C@H]2CC[C@@H](NCc3cc(Cl)cc(Cl)c3)CC2)nc1N(C)C` [compound 3001] the class was 3 (Class 3 The value of percent of control at 10^−7 M was more than 60% or the value of IC50 was more than 200 nM.). `Cc1cnc(N[C@H]2CC[C@@H](NCc3ccc(Cl)c(Cl)c3)CC2)nc1N(C)C` [compound 3002] was tested, and the class was 3 (Class 3 The value of percent of control at 10^−7 M was more than 60% or the value of IC50 was more than 200 nM.). In the case of `COc1ccc(CN[C@H]2CC[C@@H](Nc3ncc(C)c(N(C)C)n3)CC2)cc1C` [compound 3003], the class is reported as 3 (Class 3 The value of percent of control at 10^−7 M was more than 60% or the value of IC50 was more than 200 nM.).
